Data: patent US10881677B2, “Composition for modulating IRAK1” (Agency for Science, Technology and Research, priority 2015, dated 2021)
“Also recorded” adds a separate entry of the source.

Assays:
[1] = tested on: parental MDA-MB-231 cells; assay: Cell viability IC50 curves, sensitivity of parental cells to agents; assay type: cell-based; settings: parental MDA231
Excerpt: (§1) FIG. 17. (a). IC50 curves showing cell viability after treatment with paclitaxel (PTX), vincristine (VCR), gemcitabine, doxorubicin (ADR), cisplatin, 5-fluorouracil (5-FU) and pacritinib in parental and pacitaxel-treated MDA-MB-231 (MDA231-PR) cells. (b). Graphical representation of relative sensitivities. (c).
(§2) For cell proliferation assay, the optimal cell seeding was first determined empirically for all cell lines by examining the growth of a wide range of seeding densities in a 96-well format to identify conditions that permitted proliferation for 7 days. Cells were then plated at the optimal seeding density 24 h before siRNA or drug treatment in triplicate. Plates were incubated for 7 days at 37° C. in 5% CO2. Cells were then lysed with CellTiter-Glo (CTG) (Promega, Madison, Wis.) and chemiluminescent signal was detected with a microplate reader on Day 0, 1, 3, 5 and 7. In addition, an untreated plate of cells was harvested at the time of drug or siRNA addition (T0) to quantify the starting number of cells. CTG values obtained after the 7 day treatment were expressed as percentages of the T0 value and plotted against time of treatment.

MDA231-PR cells = assay: Cell viability IC50 curves, sensitivity of paclitaxel-resistant cells to agents; assay type: cell-based; settings: for sensitivity of paclitaxel-resistant cells to agent: paclitaxel-treated/resistant cells over-expressing p-IRAK1; for shift of the IC50 curve: MDA231-PR versus parental MDA-MB-231
Excerpt: as §1, §2

[2] = tested on: SUM159-PR and MDA231-PR cells; assay: Apoptosis by FACS analysis of Sub-G1 cells; assay type: cell-based; settings: for sensitization of Paclitaxel for apoptosis: Paclitaxel-resistant cells (SUM159-PR, MDA231-PR), inhibitor together with Paclitaxel
Protocol: Cell cycle analysis was done by DNA content quantification to quantify the sub-G1 population which is reflective of the extent of cell death. Briefly, the cells were fixed with 70% ethanol and stained with propidium iodide (50 μg/ml) staining. The stained cells were analyzed by FACScalibur (BD Bioscience) and quantified by using CellQuest software (BD bioscience).

[3] = tested on: BT549, MB436, MB468, MDA231 and MDA231-LM2 cells; assay: Mammosphere formation assay; assay type: cell-based; settings: Ginsenosides CK and Rb1
Protocol: Active growing cells were treated with 0.05% trypsin for 10 minutes then passed through […] cell strainer to achieve single cell suspension. Cells were plated (MDA231: 1×10^4; MB436: 3×10^4; MB468: 4×10^4 cells/well, BT549: 3×10^4, MDA231-LM2: 3×10^4) seeded in 6-well ultra-low attachment plates (Corning, Corning, N.Y., cat: CLS3471) in Mammocult medium (Stem cell Technologies, Vancouver, BC, Canada), supplemented with fresh hydrocortisone (0.51 μg/ml) and heparin (1:500). Tumorspheres were cultured for 7 days prior to being counted and photographed. Imaging and quantification were done using GelCount™ apparatus and associated software (Oxford Optronix, Abingdon, UK). For serial passages of tumorsphere formation assay, the spheres were collected by gentle centrifugation, dissociated to single cells for passaging tumorspheres every 14 days and counted. Tumorspheres were photographed and quantified 7-12 days later using a GelCount Colony Counter after staining with INT.

IRAK1 = IRAK1 (Homo sapiens, UniProt P51617); settings: cited from earlier work; for ability to inhibit IRAK1: recently reported (ref 38), in vitro and in vivo
Chain of IRAK1 (P51617 whole entry, species assumed): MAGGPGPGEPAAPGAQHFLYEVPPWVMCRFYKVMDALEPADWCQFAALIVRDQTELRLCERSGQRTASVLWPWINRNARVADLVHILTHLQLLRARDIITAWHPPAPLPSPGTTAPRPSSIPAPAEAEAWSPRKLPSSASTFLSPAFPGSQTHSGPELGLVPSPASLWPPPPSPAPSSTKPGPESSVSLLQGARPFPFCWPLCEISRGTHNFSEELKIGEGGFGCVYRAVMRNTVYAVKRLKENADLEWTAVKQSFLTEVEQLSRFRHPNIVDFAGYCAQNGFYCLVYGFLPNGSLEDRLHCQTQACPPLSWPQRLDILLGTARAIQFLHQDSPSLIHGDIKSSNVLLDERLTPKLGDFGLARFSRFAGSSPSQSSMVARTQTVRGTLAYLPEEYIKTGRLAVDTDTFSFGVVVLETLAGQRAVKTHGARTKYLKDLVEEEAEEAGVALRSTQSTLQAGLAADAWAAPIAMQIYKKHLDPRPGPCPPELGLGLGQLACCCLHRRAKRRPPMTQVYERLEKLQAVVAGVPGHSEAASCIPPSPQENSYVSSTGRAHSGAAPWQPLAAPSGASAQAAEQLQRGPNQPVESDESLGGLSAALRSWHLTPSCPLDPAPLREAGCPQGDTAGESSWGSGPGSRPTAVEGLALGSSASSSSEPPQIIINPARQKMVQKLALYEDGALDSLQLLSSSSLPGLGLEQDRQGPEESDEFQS

[4] = tested on: MDA231 and SUM159 parental and Paclitaxel-resistant sublines (PR); assay: Cell viability of parental and Paclitaxel-resistant sublines, combination treatment; assay type: cell-based; settings: MDA231-PR cells, in combination with PTX
Protocol: as §2

p-IRAK1 (T209) = molecular target: T1, p-IRAK1 (T209) (Homo sapiens, UniProt P51617); assay: Western blot of p-IRAK1 in immunoprecipitated IRAK1; assay type: cell-based; settings: for IRAK1 signaling activated by chemotherapeutic agents: discussion statement; for induction of p-IRAK1 by chemotherapeutic agent: MDA231 (also SUM159) cells, PTX 5 nM, ADR 2 μM, Cisplatin 5 μM, up to 48 hours
T1 construct: The whole cell lysate were extracted with the NE-PER kit (Pierce Biotechnology) and subjected to immunoprecipitation using 2 μg total-IRAK1 antibody; endogenous in cells; host or cells: TNBC cell lines (BT549, MB436, MB468, MDA231, MDA231-LM2, SUM159 and paclitaxel-resistant sublines)
T1 sequence (P51617 whole entry): as the sequence (P51617 whole entry, species assumed) above
Protocol: (§3) Western Blotting was performed as described previously (8). IRAK1 (Cat no: #4359), IRAK4 (Cat no.: 4363), cleaved PARP (Cat no.: #9541), p38 MAPK (Cat no.: #9212), phospho-p38 MAPK (T180/Y182) (Cat no.: #9211), phospho-NF-KappaB p65 (S536) (Cat no. #3031) were purchased from Cell Signaling (Danvers, Mass.). Phospho-IRAK1 (T209) antibody was purchased from Assay Biotech (Sunnyvale, Calif., Cat no.: A1074) and phospho-IRAK1 (S376) antibody from Genetex (Irvine, Calif., Cat no.: GTX50994). MCL-1 antibody was purchased from Santa Cruz Biotechnology (Santa Cruz, Calif., Cat no.: sc-819). Actin was purchased from Sigma-Aldrich (St Louis, Mo., Cat no.: A5441). Detection of bands was performed with the ChemiDoc™ MP Imaging Systems (Bio-Rad, Hercules, Calif.) and bands were subjected to further densitometric analysis with Image Lab software (Version 4.1, Bio-rad, Hercules, Calif.).
Co-IP was performed as described previously (9). The whole cell lysate were extracted with the NE-PER kit (Pierce Biotechnology) and subjected to immunoprecipitation using 2 μg total-IRAK1 antibody (Santa Cruz Biotech, Santa Cruz, Calif., Cat no.: sc-7883). The precipitated protein complex was captured using protein A-Agarose beads (Roche) and extensively washed with the washing buffer (50 mM Tris-HCl, 150 mM NaCl, 0.1% triton). The precipitated proteins were dissolved in SDS sample buffer along with 3 mM DTT, and subjected to immunoblotting analysis. Phospho-IRAK1 (T209) (Assay Biotechnology, Sunnyvale, Calif., Cat no.: A1074) was used for detection.

[5] = tested on: p38-MCL-1 signaling in SUM159-PR cells; assay: Western blot of p-p38, MCL-1 and cleaved PARP; assay type: cell-based; settings: inhibitor with Paclitaxel
Protocol: as §3

With `O=c1[nH]cc(F)c(=O)[nH]1` [5-fluorouracil] as the compound, how does the “response of parental cells to agent” value [1] read?
The value was “poor”.

And the “sensitivity of paclitaxel-resistant cells to agent” value (from here on “sensitivity”) (MDA231-PR cells)?
Its value is “poor”.

With `Cc1ccc(S(=O)(=O)/C=C/C#N)cc1` [Bay 117082, BAY-11-7082] as the compound, how does the “sensitization of Paclitaxel for apoptosis” value (from here on “sensitization of Paclitaxel”) [2] read?
Its value is “failed to sensitize”.

With `CC(C)=CCC[C@](C)(O[C@@H]1O[C@H](CO)[C@@H](O)[C@H](O)[C@H]1O)[C@H]1CC[C@]2(C)[C@@H]1[C@H](O)C[C@@H]1[C@@]3(C)CC[C@H](O)C(C)(C)[C@@H]3CC[C@]12C` [CK, Compound K] as the compound, how does the MDA231-LM2 mammosphere growth [3] read?
Its MDA231-LM2 mammosphere growth is “abolish; also recorded: inhibit TNBC metastatic growth”.

What about the “ability to inhibit IRAK1” value (IRAK1) of the same compound?
The value was “ability to inhibit IRAK1”.

What about the “effect on Paclitaxel resistance (cell viability and apoptosis)” value [4] of the same compound?
Its value is “combat Paclitaxel resistance; also recorded: combat chemoresistance”.

What about the “p-IRAK1 in MDA231-LM2 cells” value (p-IRAK1 (T209); CK 25 μM) of the same compound?
The value was “inhibit p-IRAK1”.

For `NS(=O)(=O)c1nn2cc(-c3ccccc3)nc2s1` [JNK inhibitor, AEG 3482], which “sensitization of Paclitaxel” value [2] is on record?
The value was “not evident”.

With `O=C(Nc1cc(Cl)cc2c1[nH]c1cnccc12)c1cccnc1` [PS1145] as the compound, how does the “sensitization of Paclitaxel” value [2] read?
Its value is “failed to sensitize”.

Which “ability to inhibit IRAK1” value (IRAK1) does the source give for `CC(C)=CCC[C@](C)(O[C@@H]1O[C@H](CO[C@@H]2O[C@H](CO)[C@@H](O)[C@H](O)[C@H]2O)[C@@H](O)[C@H](O)[C@H]1O)[C@H]1CC[C@]2(C)[C@@H]1[C@H](O)C[C@@H]1[C@@]3(C)CC[C@H](O[C@@H]4O[C@H](CO)[C@@H](O)[C@H](O)[C@H]4O[C@@H]4O[C@H](CO)[C@@H](O)[C@H](O)[C@H]4O)C(C)(C)[C@@H]3CC[C@]12C` [Rb1, Ginsenoside Rb1] here?
Its value is “ability to inhibit IRAK1”.

Which results are given for `CC[C@]1(O)C[C@H]2CN(CCc3c([nH]c4ccccc34)[C@@](C(=O)OC)(c3cc4c(cc3OC)N(C=O)[C@H]3[C@@](O)(C(=O)OC)[C@H](OC(C)=O)[C@]5(CC)C=CCN6CC[C@]43[C@@H]65)C2)C1` [Vincristine]?
shift of the IC50 curve (MDA231-PR cells): marked right shift; sensitivity of paclitaxel-resistant cells to agent (MDA231-PR cells): resistant; IRAK1 signaling activated by chemotherapeutic agents (p-IRAK1 (T209)): activated

Which results are given for `N.N.[Cl][Pt][Cl]` [cisplatin]?
sensitivity of paclitaxel-resistant cells to agent (MDA231-PR cells): remained sensitive; also recorded: remained susceptible; induction of p-IRAK1 by chemotherapeutic agent (p-IRAK1 (T209)): not seen

Which “shift of the IC50 curve” value (MDA231-PR cells) does the source give for `COc1cccc2c1C(=O)c1c(O)c3c(c(O)c1C2=O)C[C@@](O)(C(=O)CO)C[C@@H]3O[C@H]1C[C@H](N)[C@H](O)[C@H](C)O1` [doxorubicin, Doxorubicin] here?
The value was “marked right shift”.

What about the “induction of p-IRAK1 by chemotherapeutic agent” value (p-IRAK1 (T209)) of the same compound?
The value was “not seen”.

What about the “IRAK1 signaling activated by chemotherapeutic agents” value (p-IRAK1 (T209)) of the same compound?
Its value is “activated”.

With `Nc1ccn([C@@H]2O[C@H](CO)[C@@H](O)C2(F)F)c(=O)n1` [gemcitabine] as the compound, how does the “sensitivity” value (MDA231-PR cells) read?
The value was “remained sensitive; also recorded: remained susceptible”.

What does the source list for `C[C@@H]1CN(Cc2ccc(F)cc2)[C@@H](C)CN1C(=O)c1cc2c(C(=O)C(=O)N(C)C)cn(C)c2cc1Cl` [p38 inhibitor, SCIO 469]?
sensitization of Paclitaxel for apoptosis [2]: able to phenocopy IRAK-inh to sensitize Paclitaxel-induced apoptosis; PARP cleavage [5]: increased PARP cleavage; p-p38 and MCL-1 expression [5]: decrease

For `C1=C/COCc2cc(ccc2OCCN2CCCC2)Nc2nccc(n2)-c2cccc(c2)COC/1` [pacritinib], which IRAK1-inhibitory activity (IRAK1; through communication with CTI BioPharma) is on record?
The IRAK1-inhibitory activity was “IRAK1-inhibitory activity”.

What about the “effect of treatment on paclitaxel-resistant MDA-MB-231 cells” value ([2]; compared with IRAK-inh) of the same compound?
Its value is “effects similar to those seen with IRAK-inh”.

And the “sensitivity” value (MDA231-PR cells)?
Its value is “sensitive; also recorded: remained susceptible”.
